# In US7601746B2 (Shionogi & Co., Ltd., priority 2003, dated 2009):
# Biological target: T1, human TPO receptor (hTPOR) (Homo sapiens, UniProt P40238)
# T1 construct: expressed in transfected cells; host or cells: BaF-B03 (murine IL-3 dependent cell line)
# T1 sequence (P40238 26-635): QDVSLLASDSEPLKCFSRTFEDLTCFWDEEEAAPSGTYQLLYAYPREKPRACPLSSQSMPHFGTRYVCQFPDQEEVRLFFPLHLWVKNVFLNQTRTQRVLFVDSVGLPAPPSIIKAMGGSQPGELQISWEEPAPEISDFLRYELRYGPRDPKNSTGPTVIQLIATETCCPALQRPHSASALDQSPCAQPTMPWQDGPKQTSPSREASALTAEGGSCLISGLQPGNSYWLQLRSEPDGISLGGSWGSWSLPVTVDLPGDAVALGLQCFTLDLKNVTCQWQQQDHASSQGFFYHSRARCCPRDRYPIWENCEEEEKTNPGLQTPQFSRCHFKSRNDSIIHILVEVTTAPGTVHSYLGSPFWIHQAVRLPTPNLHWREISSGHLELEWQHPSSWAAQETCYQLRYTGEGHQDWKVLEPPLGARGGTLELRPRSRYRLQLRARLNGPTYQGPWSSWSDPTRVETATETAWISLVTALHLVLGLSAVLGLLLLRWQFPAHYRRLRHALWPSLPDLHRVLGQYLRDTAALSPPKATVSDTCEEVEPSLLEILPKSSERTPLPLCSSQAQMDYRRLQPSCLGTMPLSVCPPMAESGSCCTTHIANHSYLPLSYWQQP
# Assay: Thrombopoietic activity: proliferation of TPO dependent BaF/hTPOR cells (WST-1, absorbance at 450 nm)
# Format: cell-based
# Conditions: 20 h + 4 h WST-1, ED50 = half concentration of the concentration showing the maximum thrombopoietic activity, Table 1
# Outline: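 Proliferation read-out: WST-1 absorbance at 450 nm after 20 h compound exposure plus 4 h reagent, using IL-3-deprived BaF/hTPOR cells (5×10^4 per well) dependent on human TPO receptor signalling. ED50 defined as half the concentration producing maximal activity.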
row,SMILES,EC50 [nM]
1,"CCCCCC(OC)c1cccc(-c2csc(NC(=O)c3cc(F)c(C=C(C)C(=O)O)c(F)c3)n2)c1F (stereo not drawn) [Compound B1, 3-(2,6-difluoro-4-{4-[2-fluoro-3-(1-methyloxyhexyl)phenyl]thiazol-2-ylcarbamoyl}phenyl)-2-methylacrylic acid]",2.2
2,"COc1c(COCCC(C)C)cccc1-c1csc(NC(=O)c2cc(F)c(/C=C(\C)C(=O)O)c(F)c2)n1 [Compound B2027, (E)-3-(2,6-difluoro-4-{4-[2-methyloxy-3-(3-methylbutyloxymethyl)phenyl]thiazol-2-ylcarbamoyl}phenyl)-2-methylacrylic acid]",12.6
3,"CCC(CC)COCCCc1cccc(-c2csc(NC(=O)c3cc(Cl)c(C=C(C)C(=O)O)c(Cl)c3)n2)c1F [Compound B88, 3-[2,6-dichloro-4-(4-[3-[3-(2-ethylbutyloxy)propyl]-2-fluorophenyl]thiazol-2-ylcarbamoyl)phenyl]-2-methylacrylic acid]",3.11
4,"COc1c(CCOCCCC(C)C)cccc1-c1csc(NC(=O)c2cc(Cl)c(/C=C(\C)C(=O)O)c(Cl)c2)n1 [Compound B1922, (E)-3-[2,6-dichloro-4-(4-{2-methyloxy-3-[2-(4-methylpentyloxy)ethyl]phenyl}thiazol-2-ylcarbamoyl)phenyl)-2-methylacrylic acid]",13.6
5,"COc1c(COCC(C)(C)C)cccc1-c1csc(NC(=O)c2cc(Cl)c(/C=C(\C)C(=O)O)c(Cl)c2)n1 [Compound B2021, (E)-3-(2,6-dichloro-4-{4-[3-(2,2-dimethylpropyloxymethyl)-2-methyloxyphenyl]thiazol-2-ylcarbamoyl}phenyl)-2-methylacrylic acid]",6.09
6,"CCCCCCCCCC(OC)c1cccc(-c2csc(NC(=O)c3cc(Cl)c(/C=C(\C)C(=O)O)c(Cl)c3)n2)c1OC (stereo not drawn) [Compound B1059, (E)-3-(2,6-dichloro-4-{4-[2-methyloxy-3-(1-methyloxydecyl)phenyl]thiazol-2-ylcarbamoyl}phenyl)-2-methylacrylic acid]",3.2
7,"CCCCCCCCCCC(OC)c1cccc(-c2csc(NC(=O)c3cc(F)c(C=C(C)C(=O)O)c(F)c3)n2)c1F (stereo not drawn) [Compound B47, 3-(2,6-difluoro-4-{4-[2-fluoro-3-(1-methyloxyundecyl)phenyl]thiazol-2-ylcarbamoyl}phenyl)-2-methylacrylic acid]",2.8
8,"CCCCOCCCc1cccc(-c2csc(NC(=O)c3cc(Cl)c(/C=C(\C)C(=O)O)c(Cl)c3)n2)c1OC [Compound B1124, (E)-3-(4-{4-[3-(3-butyloxypropyl)-2-methyloxyphenyl]thiazol-2-ylcarbamoyl}-2,6-dichlorophenyl)-2-methylacrylic acid]",15.8
9,"C/C(=C\c1c(Cl)cc(C(=O)Nc2nc3c(s2)COc2c-3cccc2C(C)C)cc1Cl)C(=O)O [Compound A1312, (E)-3-[2,6-dichloro-4-(6-isopropyl-4H-chromeno[4,3-d]thiazol-2-ylcabamoyl)phenyl]-2-methylacrylic acid]",10.8
10,"COc1c(COCC(C)(C)C)cccc1-c1csc(NC(=O)c2cc(F)c(/C=C(\C)C(=O)O)c(F)c2)n1 [Compound B1933, (E)-3-(4-{4-[3-(2,2-dimethylpropyloxymethyl)-2-methyloxyphenyl]thiazol-2-ylcarbamoyl}-2,6-difluorophenyl)-2-methylacrylic acid]",7.88
11,"C/C(=C\c1c(F)cc(C(=O)Nc2nc3c(s2)COc2c(CCC(C)(C)C)cccc2-3)cc1F)C(=O)O [Compound A1315, (E)-3-{4-[6-(3,3-dimethylbutyl)-4H-chromeno[4,3-d]thiazol-2-ylcabamoyl]-2,6-difluorophenyl}-2-methylacrylic acid]",12.5
12,"CCC(CC)COCCCc1cccc(-c2csc(NC(=O)c3cc(F)c(/C=C(\C)C(=O)O)c(F)c3)n2)c1OC [Compound B1848, (E)-3-[4-(4-{3-[3-(2-ethylbutyloxy)propyl]-2-methyloxyphenyl}thiazol-2-ylcarbamoyl)-2,6-difluorophenyl]-2-methylacrylic acid]",15.9

# Continued, values first:
row,EC50 [nM],SMILES
1,0.34,"CCCCOC(CCCC)c1cccc(-c2csc(NC(=O)c3cc(F)c(C=C(C)C(=O)O)c(F)c3)n2)c1F (stereo not drawn) [Compound B42, 3-(4-{4-[3-(1-n-butyloxypentyl)-2-fluorophenyl]thiazol-2-ylcarbamoyl}-2,6-difluorophenyl]-2-methylacrylic acid]"
2,1.3,"CCCCOCCCc1cccc(-c2csc(NC(=O)c3cc(F)c(C=C(C)C(=O)O)c(F)c3)n2)c1F [Compound B49, 3-(4-{4-[3-(3-n-butyloxypropyl)-2-fluorophenyl]thiazol-2-ylcarbamoyl}-2,6-difluorophenyl)-2-methylacrylic acid]"
3,0.48,"CCCCCOC(CC)c1cccc(-c2csc(NC(=O)c3cc(Cl)c(C=C(C)C(=O)O)c(Cl)c3)n2)c1F (stereo not drawn) [Compound B67, 3-[2,6-dichloro-4-(4-{3-[1-n-pentyloxypropyl]-2-fluorophenyl}thiazol-2-ylcarbamoyl)phenyl]-2-methylacrylic acid]"
4,0.68,"CCCCOCCCC(OCCCC)c1cccc(-c2csc(NC(=O)c3cc(F)c(C=C(C)C(=O)O)c(F)c3)n2)c1F (stereo not drawn) [Compound B51, 3-(4-{4-[3-(1,4-dibutyloxybutyl)-2-fluorophenyl]thiazol-2-ylcarbamoyl}-2,6-difluorophenyl)-2-methylacrylic acid]"
5,0.77,"CCCCCOC(CCSC)c1cccc(-c2csc(NC(=O)c3cc(F)c(C=C(C)C(=O)O)c(F)c3)n2)c1F (stereo not drawn) [Compound B16, 3-(2,6-difluoro-4-{4-[2-fluoro-3-(3-methylthio-1-n-pentyloxypropyl)phenyl]thiazol-2-ylcarbamoyl}phenyl)-2-methylacrylic acid]"
6,0.93,"CCCCCCCC(OC)c1cccc(-c2csc(NC(=O)c3cc(F)c(C=C(C)C(=O)O)c(F)c3)n2)c1F (stereo not drawn) [Compound B25, 3-(2,6-difluoro-4-{4-[2-fluoro-3-(1-methyloxyoctyl)phenyl]thiazol-2-ylcarbamoyl}phenyl)-2-methylacrylic acid]"
7,0.78,"CCCCCCOCCCc1cccc(-c2csc(NC(=O)c3cc(Cl)c(C=C(C)C(=O)O)c(Cl)c3)n2)c1F [Compound B96, 3-(2,6-dichloro-4-{4-[2-fluoro-3-(3-n-hexyloxypropyl)phenyl]thiazol-2-ylcarbamoyl)phenyl]-2-methylacrylic acid]"
8,0.88,"CC(=Cc1c(F)cc(C(=O)Nc2nc(-c3cccc(CCCOCCC(C)(C)C)c3F)cs2)cc1F)C(=O)O [Compound B40, 3-[2,6-difluoro-4-(4-{3-[3-(3,3-dimethylbutyloxy)propyl]-2-fluorophenyl}thiazol-2-ylcarbamoyl)phenyl]-2-methylacrylic acid]"
9,1.51,"CC(=Cc1c(Cl)cc(C(=O)Nc2nc(-c3cccc(CCCOCCC4CCCC4)c3F)cs2)cc1Cl)C(=O)O [Compound B89, 3-[2,6-dichloro-4-(4-[3-[3-(2-cyclopentylethyloxy)propyl]-2-fluorophenyl]thiazol-2-ylcarbamoyl)phenyl]-2-methylacrylic acid]"
10,0.78,"CCCCCCCC(OC)c1cccc(-c2csc(NC(=O)c3cc(Cl)c(C=C(C)C(=O)O)c(Cl)c3)n2)c1F (stereo not drawn) [Compound B69, 3-(2,6-dichloro-4-{4-[2-fluoro-3-(1-methyloxyoctyl)phenyl]thiazol-2-ylcarbamoyl}phenyl)-2-methylacrylic acid]"
11,1.9,"CCOC(c1cccc(-c2csc(NC(=O)c3cc(F)c(C=C(C)C(=O)O)c(F)c3)n2)c1F)C(C)(C)C (stereo not drawn) [Compound B10, 3-(2,6-difluoro-4-{4-[3-(1-ethyloxy-2,2-dimethylpropyl)-2-fluorophenyl]thiazol-2-ylcarbamoyl}phenyl)-2-methylacrylic acid]"
12,1.91,"CCCCOCCCc1cccc2c1CCc1sc(NC(=O)c3cc(F)c(C=C(C)C(=O)O)c(F)c3)nc1-2 [Compound A5, 3-{4-[6-(3-n-butyloxypropyl)-4,5-dihydronaphto[1,2-d]thiazol-2-ylcabamoyl]-2,6-difluorophenyl}-2-methylacrylic acid]"
13,0.8,"CCCCOC(C)c1cccc(-c2csc(NC(=O)c3cc(F)c(C=C(C)C(=O)O)c(F)c3)n2)c1F (stereo not drawn) [Compound B50, 3-(4-{4-[3-(1-n-butyloxyethyl)-2-fluorophenyl]thiazol-2-ylcarbamoyl}-2,6-difluorophenyl)-2-methylacrylic acid]"
14,1.2,"CCOCCCc1cccc2c1CCc1sc(NC(=O)c3cc(Cl)c(C=C(C)C(=O)O)c(Cl)c3)nc1-2 [Compound A10, 3-{2,6-dichloro-4-[4,5-dihydro-6-(3-ethyloxypropyl)naphtho[1,2-d]thiazol-2-ylcabamoyl]phenyl}-2-methylacrylic acid]"

# Same assay, conditions: 20 h + 4 h WST-1, ED50 = half concentration of the concentration showing the maximum thrombopoietic activity, Table 2
row,EC50 [nM],SMILES
1,22.8,"CCCCCC(OC)c1cccc(-c2nc(NC(=O)c3cc(Cl)c(/C=C(\OC)C(=O)O)c(Cl)c3)sc2OC)c1F (stereo not drawn) [Compound B1861, (Z)-3-(2,6-dichloro-4-{4-[2-fluoro-3-(1-methyloxyhexyl)phenyl]-5-methyoxythiazol-2-ylcarbamoyl}phenyl)-2-methyloxyacrylic acid]"
